Columns and labels:
[1] = system: acute liver damage induced by carbon tetrachloride; experiment: protective effect on acute liver damage associated with centrilobular necrosis, carbon tetrachloride model; type: in vivo, mouse (dd strain); conditions: 250 mg/kg oral 6 h before CCl4, 24 h after CCl4; for Liver Damage Index: 0 normal, 2 slightly recognized, 4 clearly observable, 6 heavy damage, average of 5 to 6 mice; for p-GPT: values over 1,000 taken as 1,000
From the text: Carbon tetrachloride (CCl4) administration induces centrilobular necrosis of the liver associated with loss of diphosphopyridine nucleotide, hepatic glycogen, coenzyme A and increase in neutral fat. Release of several enzymes from the hepatocytes, and increase of enzyme activities in the plasma are recognized as the result of the damage of the liver. A suitable means for evaluating the degree of damage induced by CCl4 or the degree of protection afforded by drugs is to study the plasma glutamic-pyruvic transaminase (p-GPT) activity.
Methods: The test compounds were dissolved or suspended in olive oil and administered orally at the dose of 250 mg/kg to the mice (Four-week-old male mice-dd strain). After 6 hours, CCl4 was administered orally (0.05 ml/kg as olive oil solution). Animals were killed 24 hours after CCl4 administration, and the liver was grossly observed. The plasma was obtained by centrifugation. Activities of p-GPT were determined by the method of Reitman and Frankel and expressed in Karmen units.
Score for liver damage index was as follows:
Each figure indicates average of 5 to 6 mice. Values of p-GPT over 1,000 Karmen unit regarded as 1,000 for calculation of average for convenience.

[2] = system: fatty liver induced by ethionine; experiment: effect on fatty liver, ethionine model; type: in vivo, mouse (dd-strain); conditions: 250 mg/kg oral, simultaneously with (0 hr) ethionine 200 mg/kg i.p.
From the text: There are known many factors inducing fatty liver. But, the fatty liver is grouped into a couple of patterns from the mechanism of lipid accumulation or metabolism of lipoprotein in the liver. Ethionine is a typical example which induces first pattern of fatty liver. It inhibits RNA and protein synthesis and destroys polysome of the liver cell. Fatty liver is induced by inhibition of the protein synthesis and disturbance of lipoprotein secretion.
Usually, fatty liver is closely related to the accumulation of triglyceride in the liver. In the present example, the degree of fatty liver and protective or therapeutic effect on the fatty liver was evaluated by measurement of triglyceride content in the liver.
The compounds of this invention and methionine were independently dissolved or suspended into olive oil and administered orally to the male mouse (4 week-old dd-strain) at the dose of 250 mg/kg. One hour before it, simultaneously with it or one hour after it, ethionine dissolved in equimolar NaOH solution was administered intraperitoneally at the dose of 200 mg/kg. Twenty four hours after the administration of ethionine, the animals were sacrificed and triglyceride content in the liver was determined by chromotropic acid method.

[3] = system: fatty liver induced by carbon tetrachloride; experiment: therapeutic effect on fatty liver, carbon tetrachloride model; type: in vivo, rat (SD strain)
Description: Carbon tetrachloride also induces fatty liver, but the picture of disease differs from the case of ethionine-induced fatty liver. Carbon tetrachloride is generally considered to damage microsome and thereby to inhibit protein synthesis and induce fatty liver.
Carbon tetrachloride was subcutaneously administered to 36 week-old male rats (SD strain) for 4 days at the dose of 1 ml/kg. The treated animals were left for 3 days after the last administration to maximize the manifestation of fatty liver.
Administration of Compound 4 was commenced on the fourth day after the administration of carbon tetrachloride was completed. It was orally given everyday for 10 days at the dose of 50 or 250 mg/kg. On the 11th day, the animals were sacrificed by exsanguination. The therapeutic effect was evaluated by determining the content of lipid in the liver (triglyceride and total lipid) and examining the histopathological changes. Triglyceride and total lipid were determined colorimetrically by chromotropic acid method and Bragdon's oxidation method, respectively.
Indices for the histopathological change is as follows: […]

[4] = system: acute liver damage induced by bromobenzene; experiment: protective effect on acute liver damage associated with centrilobular necrosis, bromobenzene model; type: in vivo, rat (SD); conditions: bromobenzene 0.75 ml/kg oral; 100 mg/kg oral 6 h before; 24 h after
Description: (§1) Bromobenzene (hereinafter abbreviated as BB), Dimethylnitrosamine (hereinafter abbreviated as DMN) and chloroform (hereinafter abbreviated as CF) resemble carbon tetrachloride in inducing liver damage associated with centrilobular necrosis.
(§2) Test compound or anethol trithion was orally administered to animal at the dose of 100 mg/kg. Twenty four hours after it (in the case of dimethylnitrosamine, exceptionally fifteen hours after it) the animals were sacrificed and blood samples were collected. Indices of hepatotoxicity adoptable in each chemical were measured, from which the efficacy of the compound was evaluated.
BB male rat 0.75 oral p-GPT activity

[5] = system: acute liver damage induced by dimethylnitrosamine; experiment: protective effect on acute liver damage associated with centrilobular necrosis, dimethylnitrosamine model; type: in vivo, mouse (dd); conditions: dimethylnitrosamine 0.05 ml/kg i.p.; 100 mg/kg oral 6 h before; 15 h after
Description: as §1, §2
DMN male mouse 0.05 intraper-

[6] = system: acute liver damage induced by chloroform; experiment: protective effect on acute liver damage associated with centrilobular necrosis, chloroform model; type: in vivo, mouse (dd); conditions: chloroform 0.2 ml/kg oral; 100 mg/kg oral 6 h before; 24 h after
Description: as §1, §2
CF male mouse 0.2 oral p-GPT activity

[7] = system: acute liver damage induced by allyl alcohol; experiment: protective effect on acute liver damage associated with periportal necrosis, allyl alcohol model; type: in vivo, mouse (dd strain); conditions: 250 mg/kg oral 6 h before allyl alcohol 0.075 ml/kg oral; 24 h after
Description: The compound of this invention or anethol trithion was orally administered to the male mouse (4 week/old, dd strain) at the dose of 250 mg/kg. Six hours after it, allyl alcohol was orally administered at the dose of 0.075 ml/kg. Twenty four hours after it, the animals were sacrificed to collect blood samples.

[8] = system: acute liver damage induced by D-galactosamine; experiment: protective effect on acute hepatitis with mesenchymal reaction and discrete lobular necrosis, D-galactosamine model; type: in vivo, rat (SD strain); conditions: 250 mg/kg oral 6 h before D-galactosamine i.p.
Description: D-Galactosamine is a compound which induces a discrete lobular necrosis associated with mesenchymal reaction similar to the change observed in human viral hepatitis, so that it is frequently used in producing a model for viral hepatitis.
The compound of this invention or anethol trithion was administered orally to the male rat (SD strain) at the dose of 250 mg/kg. Six hours after it, D-galactosamine was intraperitoneally administered at the dose of 600 mg/kg. Four hours after it, an additional 300 mg/kg was administered intraperitoneally. Eight hours after it, the animals were sacrificed to collect the blood samples. P-GPT activity and triglyceride in the liver were measured to evaluate the effect of the compound of this invention.

[9] = system: bile flow and excretion of biliary salt; experiment: cholagogic action: bile flow and biliary salt excretion; type: in vivo, rat (SD-JCL strain); parameters: key to excretion of biliary salt: relative to 1 h pre-drug amount taken as 100
Description: The male rat (4 week-old, SD-JCL strain) was anesthetized with sodium pentobarbital (37.5 mg/kg, intraperitoneal injection). The abdominal cavity was opened through a midline incision. The common bile duct was catheterized with polyethylene tube o.d. 0.8 mm. The catheter was brought to the outside through the abdominal incision wound prior to closing. Bile was collected from the catheter continuously with time intervals of one hour. The quantity of bile produced in one hour was determined by weighing and that of biliary salt was determined by enzymatic method (Ikagaku Jikkenho Koza 1B, Biological Constituents II, edited by Tamino […]). The amount of biliary salts was represented as chloic acid equivalent. In the representation of the results, the quantities of bile and biliary salts produced in one hour prior to the administration of drug were taken as 100. […] As reference, anethol trithion was used.

[10] = system: glucose metabolic function of liver; experiment: effect on glucose metabolism (blood sugar); type: in vivo, mouse; conditions: for Blood Sugar: 250 mg/kg oral 6 h before glucose 4.0 g/kg
Description: Methods: The test compounds dissolved in olive oil and administered orally at the dose of 250 mg/kg to the mice. After 6 hours, 4.0 g/kg of glucose was orally administered. The same amount of glucose was given to the control animals. 0.02 ml of blood was taken from caudal vein of the mice at 30, 60, 90 and 120 min. after glucose administration. Blood sugar was measured by the procedure of Somogyi-Nelson. Number of animals used was 5 to 6 mice for each treatment.

[11] = system: alcohol metabolic function of liver; experiment: effect on concentration of ethyl alcohol in the blood; type: in vivo, mouse; conditions: 250 mg/kg oral 6 h before ethanol 1,000 mg/kg
Description: The test compounds are dissolved or suspended in olive oil and administered orally at the dose of 250 mg/kg to the mice. After 6 hours, 1,000 mg/kg of ethyl alcohol was given orally. Blood was taken in a capillary from caudal vein at the time indicated in the results. The plasma was obtained by centrifugation. The concentration of ethyl alcohol in the plasma was measured by FID type gas liquid chromatography. Five mice were used for each group.

CCCOC(=O)C(C(=O)OCCC)=C1SC=CS1 [Compound 3, Di-n-propyl 1,3-dithiol-2-ylidene malonate]
Liver Damage Index [1]: 0.1
p-GPT [1]: 36 Karmen units

CSCC[C@H](N)C(=O)O [Methionine, reference compound]
Triglyceride [2]: 10.3 ± 0.83 mg/g-liver
Total lipid ([3]; 250 mg/kg, 10 days): 146.1 ± 13.0 mg/g-liver
Triglyceride ([3]; 250 mg/kg, 10 days): 47.3 ± 7.3 mg/g-liver
therapeutic effect against fatty liver ([3]; carbon tetrachloride): hardly exhibited a therapeutic effect

COC(=O)C(C(=O)OCC(C)C)=C1SC=CS1 [Compound 8, Methyl isobutyl 1,3-dithiol-2-ylidene malonate]
Liver Damage Index [1]: 0.6
p-GPT [1]: 88 Karmen units

COc1ccc(-c2cc(=S)ss2)cc1 [Anethol trithion, reference compound]
p-GPT [1]: 38 Karmen units
BSP [4]: 12.9 ± 5.5 mg/dL
p-GPT [4]: 28 ± 4.1 Karmen unit
BSP [5]: 17.6 ± 2.7 mg/dL
p-GPT [5]: 192 ± 54 Karmen unit
p-GPT [6]: > 1000 Karmen unit
BSP [7]: 19.3 ± 4.6
Triglyceride in the liver [8]: 9.2 ± 1.5 mg/g
excretion of biliary salt ([9]; 200 mg/kg oral, 5 hours after treatment, before treatment = 100): 33 ± 4.0
excretion of biliary salt ([9]; before treatment, 1 hour, taken as 100 (normalisation)): 100

CCOC(=O)C(C(=O)OCC)=C1SC=CS1 [Compound 2, Diethyl 1,3-dithiol-2-ylidene malonate]
Liver Damage Index [1]: 0.2
p-GPT [1]: 36 Karmen units
Blood Sugar, percent of 0 min value ([10]; 0 min): 100%
Blood Sugar ([10]; 0 min): 136 ± 20.4 mg/dL
Blood Sugar ([10]; 30 min): 295 ± 22.3 mg/dL
Blood Sugar ([10]; 60 min): 251 ± 19.6 mg/dL
Blood Sugar ([10]; 90 min): 202 ± 12.3 mg/dL
Blood Sugar ([10]; 120 min): 158 ± 15.5 mg/dL
Blood Sugar, percent of 0 min value ([10]; 30 min): 217%
Blood Sugar, percent of 0 min value ([10]; 60 min): 185%
Blood Sugar, percent of 0 min value ([10]; 90 min): 149%
Blood Sugar, percent of 0 min value ([10]; 120 min): 116%

COC(=O)C(C(=O)OC)=C1SC=CS1 [Compound 1]
Liver Damage Index [1]: 0.4
p-GPT [1]: 138 Karmen units

CCCCOC(=O)C(C(=O)OCCCC)=C1SC=CS1 [Compound 5]
Liver Damage Index [1]: 0.4
p-GPT [1]: 52 Karmen units

CC(C)COC(=O)C(C(=O)OCC(C)C)=C1SC=CS1 [Compound 6]
Liver Damage Index [1]: 0.4
p-GPT [1]: 75 Karmen units

CCOC(=O)C(C(=O)OC(C)C)=C1SC=CS1 [Compound 7, Ethyl isopropyl 1,3-dithiol-2-ylidene malonate]
Liver Damage Index [1]: 0.8
p-GPT [1]: 102 Karmen units
Concentration of Ethyl alcohol in Plasma ([11]; 0 min): 30 ± 14 ppm
Concentration of Ethyl alcohol in Plasma ([11]; 5 min): 830 ± 180 ppm
Concentration of Ethyl alcohol in Plasma ([11]; 15 min): 799 ± 154 ppm
Concentration of Ethyl alcohol in Plasma ([11]; 30 min): 448 ± 208 ppm
Concentration of Ethyl alcohol in Plasma ([11]; 60 min): 158 ± 113 ppm
Concentration of Ethyl alcohol in Plasma ([11]; 120 min): 12 ± 2 ppm

From patent publication US4118506A, “Pharmaceutical compositions containing 1,3-dithiol-2-ylidene malonate derivatives” (Nihon Nohyaku Co., Ltd., priority 1976, dated 1978)
